Measured values as given in patent US9521846B2, “Template-fixed peptidomimetics with antimicrobial activity” (priority 2006, dated 2016).
Converted amounts (≈) assume the structure as drawn. Where two headings read alike, the source gives them in different places. Non-standard residues stand in square brackets, D forms with d. Residues, ends and D or L forms follow the SMILES beside them. Dab = NCC[C@H](N)C(=O)O

Assays:
[1] = Plasma stability, human plasma; type: in vitro ADME
HELA cells (Acc57) = assay: Cytotoxicity assay, MTT reduction (LC 50, GI 50); type: cell-based
Procedure, shortened: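 HeLa cells seeded at 7.0×10^3 cells/well, grown 24 h, then exposed to peptides at 12.5, 25 and 50 μM in triplicate for 48 h at 37 °C; MTT (0.5 mg/ml, 2 h), A595 read. Percent growth was taken relative to time-zero plates; LC50 and GI50 were interpolated by linear trend at −50% and 50% growth.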

[2] = test system: human red blood cells (hRBC); assay: Hemolysis; type: cell-based
P. aeruginosa ATCC 27853 = type: cell-based, Pseudomonas aeruginosa
Procedure, shortened: (§1)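 Peptide activity was measured by a modified NCCLS broth microdilution method in Mueller-Hinton broth with 0.02% BSA. An inoculum adjusted against a 0.5 McFarland standard to about 10^6 CFU/ml was mixed 1:1 with two-fold serial peptide dilutions.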

[3] = test system: Pseudomonas aeruginosa P1021913; type: cell-based
Procedure, shortened: as §1

[4] = test system: Pseudomonas aeruginosa IMP 1 Livermore 3140; type: cell-based
Procedure, shortened: as §1

[5] = test system: Pseudomonas aeruginosa P8191900; type: cell-based
Procedure, shortened: as §1

[6] = test system: Pseudomonas aeruginosa P1021903; type: cell-based
Procedure, shortened: as §1

[7] = Plasma stability, rat plasma; type: in vitro ADME
[8] = test system: Pseudomonas aeruginosa (ATCC 27853); assay: In vivo septicemia assay; parameters: species or system CD-1 mice; conditions: groups of 6 mice
Description: Groups of 6 CD-1 (Crl.) derived male mice weighing 24±2 g were used. The mice were each inoculated intravenously (IV) with an LD90-100 of Pseudomonas aeruginosa (ATCC 27853) (9×10^6 CFU/0.5 ml/mouse) in brain heart infusion broth without 5% mucin. Compound at doses of 5, 2.5, 1, 0.5, 0.25 and 0.1 mg/kg, vehicle (0.9% NaCl, 10 ml/kg) was administered subcutaneously (SC) to test animals at 1 hour after bacterial inoculation. Also, an additional group was treated twice with compound at a dose of 5 mg/kg at 1 and 6 hours after bacterial inoculation. Mortality was recorded once daily for 7 days following the bacterial inoculation and an increase of survival of the animals by 50 percent or more (^3 50%) after the bacterial inoculation, relative to vehicle control, indicates significant antimicrobial effect. The MED (ED50) was determined by nonlinear regression using Graph-Pad Prism (Graph Pad Software, USA).
Septicaemia experiment in mice: LD90-100 of Pseudomonas aeruginosa (ATCC 27853) (9×10^6 CFU/0.5 ml/mouse IV and after 1 h Ex. 1 s.c.
Septicaemia experiment in mice: LD90-100 of Pseudomonas aeruginosa (ATCC 27853) (9×10^6 CFU/0.5 ml/mouse IV), and after 1 and 5 h Ex. 40 s.c.
Septicaemia experiment in mice: LD90-100 of Pseudomonas aeruginosa (ATCC 27853) (9×10^6 CFU/0.5 ml/mouse IV), and after 1 and 5 h Ex. 50 s.c.

[9] = average over the five P. aeruginosa strains, Mueller-Hinton broth

Compound | Stability human Plasma t1/2 [1] [h] | Cytotoxicity GI50 Hela cells (HELA cells (Acc57)) [µM] | Hemolysis at 100 μg/ml [2]; 100 [%] | Average MIC (P. aeruginosa) [mg/L] | MIC P. aeruginosa ATCC 27853 (P. aeruginosa ATCC 27853; ATCC 27853) [mg/L] | MIC P. aeruginosa P1021913 ([3]; P1021913) [mg/L] | MIC P. aeruginosa IMP1 Livermore 3140 ([4]; IMP 1 Livermore 3140) [mg/L] | MIC P. aeruginosa P8191900 ([5]; P8191900) [mg/L] | MIC P. aeruginosa P1021903 ([6]; P1021903) [mg/L] | Stability rat Plasma t1/2 [7] [h] | Dead ([8]; 2 × 1 mg/kg, after 1 and 5 h) | Survivors ([8]; 2 × 1 mg/kg, after 1 and 5 h) | further results
CC[C@H](C)[C@@H]1NC(=O)[C@H](Cc2c[nH]c3ccccc23)NC(=O)[C@H]([C@@H](C)O)NC(=O)[C@@H]2CCCN2C(=O)[C@H]2CCCN2C(=O)[C@H](CCN)NC(=O)[C@H]([C@@H](C)O)NC(=O)[C@H](CCN)NC(=O)[C@H](CCN)NC(=O)[C@H](Cc2c[nH]c3ccccc23)NC(=O)[C@H](CCN)NC(=O)[C@H](CCN)NC(=O)[C@H](CCCCN)NC(=O)[C@H](CCN)NC1=O [Example 16] (cyclo(TWI[Dab]K[Dab][Dab]W[Dab][Dab]T[Dab][dP]P)) | 5 | 50 | 0.1 | 0.11 | 0.05 (≈ 0.031 µM) | 0.10 (≈ 0.0621 µM) | 0.24 (≈ 0.149 µM) | 0.09 (≈ 0.0559 µM) | 0.05 (≈ 0.031 µM) | 5 | – | – | –
CC[C@H](C)[C@@H]1NC(=O)[C@H](Cc2c[nH]c3ccccc23)NC(=O)[C@H]([C@@H](C)O)NC(=O)[C@@H]2CCCN2C(=O)[C@H]2CCCN2C(=O)[C@H](CCN)NC(=O)CNC(=O)[C@H](CCN)NC(=O)[C@H](CCN)NC(=O)[C@H](Cc2c[nH]c3ccccc23)NC(=O)[C@H](CCN)NC(=O)[C@H](CCN)NC(=O)[C@H](CCCCN)NC(=O)[C@H](CCN)NC1=O [Example 2] (cyclo(TWI[Dab]K[Dab][Dab]W[Dab][Dab]G[Dab][dP]P)) | 5 | 50 | 0.3 | 0.15 | 0.04 (≈ 0.0255 µM) | 0.18 (≈ 0.115 µM) | 0.24 (≈ 0.153 µM) | 0.10 (≈ 0.0638 µM) | 0.16 (≈ 0.102 µM) | 5 | – | – | –
CC(C)[C@@H]1NC(=O)[C@H](Cc2c[nH]c3ccccc23)NC(=O)[C@H]([C@@H](C)O)NC(=O)[C@@H]2CCCN2C(=O)[C@H]2CCCN2C(=O)[C@H](CCN)NC(=O)[C@H](C)NC(=O)[C@H](CCN)NC(=O)[C@H](CCN)NC(=O)[C@H](Cc2c[nH]c3ccccc23)NC(=O)[C@H](CCN)NC(=O)[C@H](CCN)NC(=O)[C@H](CCCCN)NC(=O)[C@H](CCN)NC1=O [Example 32] (cyclo(TWV[Dab]K[Dab][Dab]W[Dab][Dab]A[Dab][dP]P)) | 5 | 50 | 0 | 0.09 | 0.02 (≈ 0.0128 µM) | 0.10 (≈ 0.0638 µM) | 0.22 (≈ 0.14 µM) | 0.05 (≈ 0.0319 µM) | 0.05 (≈ 0.0319 µM) | 5 | – | – | –
Gentamycin [reference compound] | – | – | – | – | – | – | – | – | – | – | 1 | 5 | Dead ([8]; 1 mg/kg, 1 h after inoculation): 0; Survivors ([8]; 1 mg/kg, 1 h after inoculation): 6
CC[C@H](C)[C@@H]1NC(=O)[C@H](Cc2c[nH]c3ccccc23)NC(=O)[C@H]([C@@H](C)O)NC(=O)[C@@H]2CCCN2C(=O)[C@H]2CCCN2C(=O)[C@H](CCN)NC(=O)[C@H](C)NC(=O)[C@H](CCN)NC(=O)[C@H](CCN)NC(=O)[C@H](Cc2c[nH]c3ccccc23)NC(=O)[C@H](CCN)NC(=O)[C@H](CCN)NC(=O)[C@H](CCCCN)NC(=O)[C@H](CCCCN)NC1=O [Example 24] (cyclo(TWIKK[Dab][Dab]W[Dab][Dab]A[Dab][dP]P)) | 5 | – | – | – | – | – | – | – | – | 5 | – | – | Hemolysis at 100 μg/ml ([2]; 100 μg/ml of peptide): 0.1%; Average MIC (P. aeruginosa; [9]): 0.14 mg/L; MIC P. aeruginosa ATCC 27853 (P. aeruginosa ATCC 27853; Mueller-Hinton broth): 0.05 mg/L (≈ 0.0311 µM); MIC P. aeruginosa P1021913 ([3]; Mueller-Hinton broth): 0.16 mg/L (≈ 0.0994 µM); MIC P. aeruginosa IMP1 Livermore 3140 ([4]; Mueller-Hinton broth): 0.24 mg/L (≈ 0.149 µM); MIC P. aeruginosa P8191900 ([5]; Mueller-Hinton broth): 0.16 mg/L (≈ 0.0994 µM); MIC P. aeruginosa P1021903 ([6]; Mueller-Hinton broth): 0.08 mg/L (≈ 0.0497 µM)
Example 50: backbone-cyclized; P1-P12 Glu-Trp-Ile-Gln-Lys-Dab-Dab-Ser-Dab-Dab-Ala-Ser; template DPro-LPro; SEQ ID NO: 50 (cyclo(EWIQK[Dab][Dab]S[Dab][Dab]AS[dP]P); SMILES CC[C@H](C)[C@@H]1NC(=O)[C@H](Cc2c[nH]c3ccccc23)NC(=O)[C@H](CCC(=O)O)NC(=O)[C@@H]2CCCN2C(=O)[C@H]2CCCN2C(=O)[C@H](CO)NC(=O)[C@H](C)NC(=O)[C@H](CCN)NC(=O)[C@H](CCN)NC(=O)[C@H](CO)NC(=O)[C@H](CCN)NC(=O)[C@H](CCN)NC(=O)[C@H](CCCCN)NC(=O)[C@H](CCC(N)=O)NC1=O) | – | 50 | – | – | – | – | – | – | – | – | 5 | 1 | Dead ([8]; 2 × 0.1 mg/kg, after 1 and 5 h): 6; Survivors ([8]; 2 × 0.1 mg/kg, after 1 and 5 h): 0; Dead ([8]; 2 × 0.3 mg/kg, after 1 and 5 h): 6; Survivors ([8]; 2 × 0.3 mg/kg, after 1 and 5 h): 0; Dead ([8]; 2 × 3 mg/kg, after 1 and 5 h): 3; Survivors ([8]; 2 × 3 mg/kg, after 1 and 5 h): 3; Dead ([8]; 2 × 10 mg/kg, after 1 and 5 h): 0; Survivors ([8]; 2 × 10 mg/kg, after 1 and 5 h): 6; Average MIC (P. aeruginosa; [9]): 0.56 mg/L; MIC P. aeruginosa ATCC 27853 (P. aeruginosa ATCC 27853; Mueller-Hinton broth): 0.09 mg/L; MIC P. aeruginosa P1021913 ([3]; Mueller-Hinton broth): 0.50 mg/L; MIC P. aeruginosa IMP1 Livermore 3140 ([4]; Mueller-Hinton broth): 2.00 mg/L; MIC P. aeruginosa P8191900 ([5]; Mueller-Hinton broth): 0.13 mg/L; MIC P. aeruginosa P1021903 ([6]; Mueller-Hinton broth): 0.06 mg/L
CC[C@H](C)[C@@H]1NC(=O)[C@H](Cc2c[nH]c3ccccc23)NC(=O)[C@H]([C@@H](C)O)NC(=O)[C@@H]2CCCN2C(=O)[C@H]2CCCN2C(=O)[C@H](CCC(N)=O)NC(=O)[C@H](C)NC(=O)[C@H](CCN)NC(=O)[C@H](CCN)NC(=O)[C@H](Cc2c[nH]c3ccccc23)NC(=O)[C@H](CCN)NC(=O)[C@H](CCN)NC(=O)[C@H](CCCCN)NC(=O)[C@H](CCC(N)=O)NC1=O [Example 40] (cyclo(TWIQK[Dab][Dab]W[Dab][Dab]AQ[dP]P)) | – | 50 | 0.7 | 0.55 | 0.25 (≈ 0.153 µM) | 0.50 (≈ 0.305 µM) | 1.00 (≈ 0.611 µM) | 0.50 (≈ 0.305 µM) | 0.50 (≈ 0.305 µM) | – | 2 | 4 | Dead ([8]; 2 × 0.1 mg/kg, after 1 and 5 h): 6; Survivors ([8]; 2 × 0.1 mg/kg, after 1 and 5 h): 0; Dead ([8]; 2 × 0.3 mg/kg, after 1 and 5 h): 6; Survivors ([8]; 2 × 0.3 mg/kg, after 1 and 5 h): 0; Dead ([8]; 2 × 3 mg/kg, after 1 and 5 h): 0; Survivors ([8]; 2 × 3 mg/kg, after 1 and 5 h): 6; Dead ([8]; 2 × 10 mg/kg, after 1 and 5 h): 0; Survivors ([8]; 2 × 10 mg/kg, after 1 and 5 h): 6
